Experimental data: US8541468B2, “Ophthalmic composition for treating tear dysfunction” (Ophtecs Corporation, priority 2003, dated 2013)

What was measured:
Type in all cases: in vivo
rat dry eye models [1] = test: Measurement of tear film breakup time (BUT) in rat dry eye models; conditions: eye drops of any concentration (40, 80 and 120 mmol/L HBA.Na), four times a day for 5 days, dry environment
Source text: Air was blown against rats in a low humidity environment as described below to prepare rat dry eye models. An effect of sodium D-3-hydroxybutyrate (hereinafter abbreviated as “HBA.Na”) which is an active ingredient in the present invention, i.e., its effect of improving the stability of tear film, was examined by use of the prepared rat dry eye models. That is, observation of dry spot areas in the tear film of the rats and measurement of BUT of the tear film were made.
As the animals to be examined, there were used female SD rats of 8 weeks old that had been conditioned in an animal room where they were kept under light for 12 hours and in the dark for 12 hours at a room temperature of 23±2° C. and a relative humidity of 60±10%. The rats were kept in the animal room for 4 days. […]
After passage of two hours from the last application of the eye drops on the fifth day, a xylazine hydrochloride/ketamine hydrochloride mixed solution was injected (2 ml/kg) into the rats to anesthetize them. After 1% fluorescein was added to the eyes of the rats and the rats were forced to blink a few times, BUT was measured. The above procedure was conducted for HBA.Na concentrations of 40, 80 and 120 mmol/L, and each of the HBA.Na concentrations was evaluated based on 8 eyes of 8 rats.

rat dry eye models [2] = test: Observation of dry spot areas in the tear film of rat dry eye models; conditions: four times a day for 5 days, dry environment
Source text: Air was blown against rats in a low humidity environment as described below to prepare rat dry eye models. An effect of sodium D-3-hydroxybutyrate (hereinafter abbreviated as “HBA.Na”) which is an active ingredient in the present invention, i.e., its effect of improving the stability of tear film, was examined by use of the prepared rat dry eye models. That is, observation of dry spot areas in the tear film of the rats and measurement of BUT of the tear film were made. […]
After passage of two hours from the last application of the eye drops on the fifth day, a xylazine hydrochloride/ketamine hydrochloride mixed solution was injected (2 ml/kg) into the rats to anesthetize them. […] Dry spot areas had been observed for 5 minutes since the eye-opening by use of a dry eye observation device “DR-1” (product of KOWA CO., LTD.), and the observed images were recorded on a videotape. The observed images were analyzed by use of image analysis software “Scion Image (version 4.02β)” (product of Scion Corporation) to determine a dry spot area per unit area [dry spot area (pixel)/area of observed area on the cornea (pixel)]. From the area, a dry spot area per unit area of the cornea [dry spot area (mm^2)/area of observed area on the cornea (mm^2)] was calculated by use of a conversion formula (1 pixel=0.0000195 mm^2) and evaluated. […]

[3] = system: corneal epithelial cells of rat dry eye models; test: SEM observation of corneal epithelial cells of rat dry eye models (proportion of dark cells, microvilli); conditions: 80 mmol/l HBA.Na applied for 5 days, dry environment
Experimental: By use of the rat dry eye models described in Example 1, the corneal epithelial cells of the rats after HBA.Na and PBS were applied were observed by a scanning electron microscope (hereinafter abbreviated as “SEM”).
Samples were prepared in the following manner. • (1) In accordance with the methods described (1), (2) and (4) of Example 1, after 80 mmol/l of HBA.Na and a PBS solution were applied for 5 days, the corneas of the rats were removed immediately and washed with a phosphate buffer (hereinafter abbreviated as “PB”). […]
The photographs taken by the above method were subjected to image analysis to calculate the proportion of the number of dark cells. In the analysis, 6 spots of a certain area were selected randomly from the photograph, the numbers of cells and dark cells within the areas were counted, and the ratio of the number of dark cells to the number of all cells was calculated. […]

Question: `C[C@@H](O)CC(=O)[O-].[Na+]` [HBA.Na, sodium D-3-hydroxybutyrate] was tested. Which “tear film breakup time (BUT), compared with PBS” value (rat dry eye models [1]) did it give?
Answer: BUT extended more significantly

Question: What about the “dry spot area per unit area of the cornea, compared with PBS” value (rat dry eye models [2]; eye drop containing 80 mmol/l HBA.Na, p<0.05 vs PBS) of the same compound?
Answer: significantly smaller dry spot area

Question: What about the “dry spot area per unit area of the cornea, compared with PBS” value (rat dry eye models [2]; eye drop containing 120 mmol/l HBA.Na, tendency only) of the same compound?
Answer: the dry spot area also became smaller

Question: What about the “state of the microvilli/microvillus of the corneal epithelial cells” value ([3]; SEM) of the same compound?
Answer: retained in a normal state and/or restored to the normal state

Question: And the “proportion of dark cells in corneal epithelial cells, compared with PBS” value ([3]; SEM image analysis)?
Answer: significantly lower proportion of dark cells
